Measured values published in patent US9113641B2, “Probiotic bacteria and regulation of fat storage” (Arla Foods amba, priority 2007, dated 2015).

Key:
Assay type in all cases: cell-based, human
[1] = tested on: FIAF expression in HT29 cells, PPARγ incapacitated by siRNA; experiment: FIAF expression in HT29 cells with PPARγ siRNA
Procedure: (§1) The human colorectal adenocarcinoma cell lines HCT116 (CCL-247, deposit at ATCC), LoVo (CCL-229, deposit ATCC), HT29 (HTB-38, deposit ATCC) and SW480 (CCL-228, deposit ATCC) were grown and maintained according to supplier's recommendations.
(§2) RNA was prepared using the Qiagen RNeasy Mini Kit following the manufacturer's protocol and cDNA was synthesised using the cDNA synthesis kit from Invitrogen according to protocol. Semi-quantitative, SYBR Green based (Applied Biosystems) real time PCR was used to detect transcripts. Forward and reverse primers were mixed at equal concentration and used at a final concentration of 0.2 μM. ADRP Fw: 5′-[…]-3′ (SEQ ID NO:1), Rv: 5′-[…]-3′ (SEQ ID NO:2); Beta-actin Fw: 5′-CCTGGCACCCAGCACAAT-3′ (SEQ ID NO:3), Rv: 5′-[…]-3′ (SEQ ID NO:4); FIAF Fw: 5′-AAAGAGGCTGCCCGAGAT-3′ (SEQ ID NO:5), Rv: 5′-TCTCCCCAACCTGGAACA-3′ (SEQ ID NO:6); ME Fw: 5′-[…]-3′ (SEQ ID NO:7), Rv: 5′-[…]-3′ (SEQ ID NO:8). Each experiment was carried out in sample duplicates. The mRNA levels of each sample were determined in triplicates. Real time PCR was performed using the ABI 7500 System for data acquisition and analysis by using the ABI 7500 System Sequence Detection software. Data is presented as mean values with standard errors.
Elimination of PPAR transcripts from HT29 cells was accomplished by Dharmacons readymade siRNA products (SMARTpool Human PPARG). […]

[2] = tested on: FIAF expression in HCT116 cells; experiment: FIAF expression in HCT116 cells by real time PCR after stimulation with bacteria, media or compounds; conditions: concentration curve, 100 μM CLA for 6 h and 24 h
Procedure: as §1
Strain F19 was always pre-cultured for 6-8 h at 37° C. on a rotating platform (225 rpm). Pre-cultures were then added to pre-warmed deMan Rogosa Sharpe (MRS) medium (dilution 1:20). The cultures were cultivated overnight prior to use. Bacterial concentration at OD600nm was determined: 1 OD600nm=1×10^8 F19/ml. The required amount of F19 was resuspended in an appropriate volume of the respective pre-warmed medium without antibiotics.
Co-culture was prepared by washing the colonic cells with warm PBS. Cells were incubated with 2×10^7/ml of F19 or with medium alone. The experiment was terminated by thoroughly washing the plates with ice-cold PBS.
As a control, F19 was heat-inactivated by incubating at 80° C. for 30 minutes. […]
RNA was prepared using the Qiagen RNeasy Mini Kit following the manufacturer's protocol and cDNA was synthesised using the cDNA synthesis kit from Invitrogen according to protocol. Semi-quantitative, SYBR Green based (Applied Biosystems) real time PCR was used to detect transcripts. […] The mRNA levels of each sample were determined in triplicates. […]

[3] = tested on: Adipose differentiation-related protein (ADRP); experiment: Expression of PPARγ target gene ADRP in HCT116 cells (real time PCR); conditions: 100 μM CLA for 24 h
Procedure: as §1
(§3) Conjugated linoleic acid (CLA; 94594) was purchased as a trans-10, cis-12 mix from Sigma. PPARγ and PPARα ligands Troglitazone (5 μM) and WY-14643 (100 μM) were products from Cayman.
as §2, with “Data is presented as mean values with standard errors.” left out

malic enzyme (ME) = experiment: Expression of PPARα target gene ME in HCT116 cells (real time PCR); conditions: 100 μM CLA for 24 h
Procedure: as §1, §3
as §2, with “Data is presented as mean values with standard errors.” left out

Substance: Conjugated linoleic acid [CLA]
- FIAF expression when PPARγ is incapacitated by siRNA [1]: no longer enhanced
- FIAF expression induced by CLA, dose and time dependence [2]: upregulate FIAF expression in a dose and time dependent manner
- Expression of PPARγ target gene ADRP [3]: increased expression
- Expression of PPARα target gene ME (malic enzyme (ME)): increased expression
